Data published in publication PMC10747913, “Preparation of ^18F-Labeled Tracers Targeting Fibroblast Activation Protein via Sulfur [^18F]Fluoride Exchange Reaction” (Pharmaceutics, 2023).
pIC50: −log10 of the molar value. “Also recorded” adds a separate entry of the source.

Key:
[1] = molecular target: T1, human recombinant FAP (Homo sapiens, UniProt Q12884); test: Fluorogenic FAP enzyme inhibition assay (BPS Bioscience #80210, Ala-Pro-AMC substrate); format: biochemical; conditions: for Hill Coefficient: mean with 95% confidence interval in brackets
T1 construct: purchased BPS Bioscience 80210
T1 sequence (Q12884 1-760): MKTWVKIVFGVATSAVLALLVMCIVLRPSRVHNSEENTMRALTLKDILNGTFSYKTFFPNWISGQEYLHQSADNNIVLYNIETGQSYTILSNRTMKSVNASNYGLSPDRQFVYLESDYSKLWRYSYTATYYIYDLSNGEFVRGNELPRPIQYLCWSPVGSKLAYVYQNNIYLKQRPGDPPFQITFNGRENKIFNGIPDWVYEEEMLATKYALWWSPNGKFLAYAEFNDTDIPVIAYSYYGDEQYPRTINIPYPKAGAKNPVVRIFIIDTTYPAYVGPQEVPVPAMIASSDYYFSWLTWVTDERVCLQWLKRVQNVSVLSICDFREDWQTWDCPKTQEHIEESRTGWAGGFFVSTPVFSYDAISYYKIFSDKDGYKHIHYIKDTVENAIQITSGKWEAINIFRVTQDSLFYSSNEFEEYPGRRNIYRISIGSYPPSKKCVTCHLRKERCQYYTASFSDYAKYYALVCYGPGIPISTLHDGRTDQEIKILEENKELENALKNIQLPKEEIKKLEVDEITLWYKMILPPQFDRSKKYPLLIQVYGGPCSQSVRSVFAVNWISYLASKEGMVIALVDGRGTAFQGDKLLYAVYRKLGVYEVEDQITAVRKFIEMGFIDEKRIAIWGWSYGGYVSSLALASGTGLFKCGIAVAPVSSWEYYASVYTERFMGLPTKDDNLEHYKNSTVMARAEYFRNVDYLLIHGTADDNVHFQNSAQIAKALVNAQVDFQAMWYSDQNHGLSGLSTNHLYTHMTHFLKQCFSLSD
Description: To determine the inhibitory capacity, a commercial fluorogenic FAP assay was used (BPS Bioscience, San Diego, CA, USA, #80210) according to the manufacturer’s instructions. […] On the day of testing, a 1:10 dilution in the supplied DPP assay buffer was performed for all compounds. […] The fluorogenic peptide substrate (Ala-Pro-AMC dipeptide) was added and the reaction started with the addition of the human recombinant FAP (25 ng/µL). Immediately, the plate was loaded into a multilabel plate reader (Biotek Cytation 5, Agilent, Bellevue, WA, USA) and each well was measured at an excitation wavelength window of 360 ± 20 nm and an emission wavelength window of 450 ± 20 nm. The fluorescence intensity was measured over 15 min in intervals of 15 s, resulting in 61 data points per curve. Controls included blanks (omission of substrate, enzyme and inhibitor), negative (omission of enzyme) and positive controls (omission of inhibitor). The recorded time courses of the type (RFU − RFU0) = f(t) were analyzed with linear regression of the experimental data over the entire measurement period. […] (2) rate=Bottom+(Top−Bottom)×[I]^nH/[I]^nH+IC50^nH
Spanning a range of compound concentrations (50 pM–1 µM), fluorescence intensity changes were followed over 15 min.

[2] = Description: Microsome experiments with [^18F]12 in the presence of NADPH were performed according to the procedure recently described by us with slight modifications. […] The radiotracer dissolved in EtOH (4 µL; 5 MBq/µL) was diluted with PBS (496 µL, 0.8% EtOH). This radiotracer solution (100 µL, 0.32% EtOH and 16 MBq/mL or 1.6 µM final) was mixed with PBS (112.5 µL) and human liver microsomes (12.5 µL of 20 mg/mL stock; 1 mg/mL final; Gibco™ Cat. No. HMMCPL, Lot. No. PL050E-B) in a 1.5 mL Eppendorf tube and the mixture was warmed for 5 min at 37 °C. Subsequently, NADPH (25 µL of freshly prepared 20 mM solution in PBS, 2 mM final) was added and the mixture was incubated at 37 °C. As a control incubation, NADPH was omitted and replaced by PBS. After distinct time points (10, 20, 30 and 60 min), an aliquot (40 µL) was withdrawn and added to ice-cooled CH3CN (160 µL). The mixture was vortexed for 30 s, stored on ice for 4 min and centrifuged (5 min at 15,000 rpm). The resulting supernatant was used for radio-HPLC analysis using the Shimadzu system described in Section 2.2 with the following conditions. A C18 column Kinetex® from Phenomenex (5 µm, 100 Å, LC Column 250 × 4.6 mm) served as stationary phase. The eluent consisted of (A) 0.1% trifluoroacetic acid in H2O and (B) MeCN; flow rate 1 mL/min; elution profile A/B: t0 min 70/30–t10.0 min 70/30–t11.0 min 5/95–t16.0 min 5/95–t17.0 min 70/30–t22.0 min 70/30.
Testosterone (40 µM final) was used as a positive control for the activity of the HLM and was separately incubated under the conditions described above (0% EtOH final).

[3] = Liver cytosol assay (HLC); format: in vitro ADME, human; conditions: for stability toward HLC: 2 mg/mL HLC, up to 60 min, 37 °C
Description: (§1) Liver cytosol experiments with [^18F]12 were performed according to reported procedures.
(§2) Vanilin (40 µM final) was used as positive control for the activity of the liver cytosols and was separately incubated under the conditions described above (1% EtOH final). […] More than 80% of the vanilin had been degraded after 60 min in the presence of HLC, while around 60% of the vanilin had been degraded with RLC. There was no change in the degradation rate with and without 1% EtOH in the incubation mixture.

[4] = Stability in EtOH; format: physicochemical; conditions: 120 min
Description: In addition, we performed a series of stability studies of compounds [^18F]12 and [^18F]13 in EtOH, phosphate-buffered saline (PBS, pH 7.4) and human serum (37 °C) to provide an indication of the rates of in vivo defluorination. […] These findings correlate with the unwanted accumulation of activity in the bones and joints obtained during PET imaging experiments in a healthy mice (Figure 5A,B).

[5] = LogD7.4 determination by n-octanol/PBS partitioning; format: physicochemical; conditions: n-octanol/phosphate-buffered saline; partitioning between PBS pH 7.4 and octanol
Description: The LogD7.4 determination of [^18F]12 was determined in a similar manner as previously described and proceeded as follows. [^18F]12 (1 μL, ca. 0.5 MBq) was pipetted into an Eppendorf tube containing 600 μL of n-octanol (presaturated with phosphate-buffered saline) and 600 μL of phosphate-buffered saline buffer (0.02 M, pH = 7.4). The tube was vortexed for 15 min at room temperature, and the two phases were separated by centrifugation at 5000 rpm for 3 min. An aliquot (400 µL) from the n-octanol layer was pipetted in a vial containing phosphate-buffered saline (400 µL), the sample mixture was vortexed for 15 min at room temperature and the two phases were separated by centrifugation at 5000 rpm for 3 min. Aliquots (250 µL) from each phase were taken and measured with an automatic γ-counter after subtracting the background activity. The transfer of the aqueous phase requires particular care, as described by Linclau et al.. The partition coefficient was calculated for the acquired samples using Equation (1). (1) logD7.4=log counts per minute (octanol)/counts per minute (phosphate buffer)

[6] = Small-animal PET distribution in healthy mice; format: in vivo, BALB/cJRj mice
Description: All animal experiments were carried out according to the guidelines of the German Regulation for Animal Welfare. The protocol was approved by the local Ethical Committee for Animal Experiments. Small-animal PET was performed using the nanoScan® PET/CT (Mediso Medical Imaging Systems, Budapest, Hungary). Each animal (BALB/cJRj mice, n = 2) received an intravenous injection of 10 MBq [^18F]12 delivered in 0.15 mL of 0.154 mol/L NaClaq through a tail vein catheter. Emission of annihilation photons was recorded continuously for 2 h. A corresponding X-ray CT image was recorded and used for anatomical referencing and attenuation correction. List-mode data were sorted into sinograms with 36 frames (15 × 10 s, 5 × 30 s, 5 × 60 s, 4 × 300 s, 3 × 600 s, 4 × 900 s) and reconstructed using the Tera-Tomo™ 3D algorithm, applying corrections for decay, scatter and attenuation. […] Three-dimensional regions of interest (ROI) were created, applying fixed contrast thresholds for delineation of blood (heart content, 80%), liver (80%), kidneys (50%), bone (knee and shoulder joints, 50%), gall bladder and intestine (5%) and urinary bladder (10%). Organ-specific activity concentrations were determined as ROI-averaged standardized uptake values at mid-frame time (SUVmean). Time–activity curves were drawn using Prism 9.0 (GraphPad Software, La Jolla, CA, USA) and the activity retention within each organ was reported as the area under the curve (AUC). Excreted activity fractions were determined as the percent of the initially administered activity dose (%ID).

[7] = Stability in PBS (pH 7.4); format: physicochemical; conditions: PBS pH 7.4, 120 min
Description: (§3) The radiochemical purity and identity of [^18F]12 and [^18F]13 was analyzed with radio-HPLC. […] Prior to a biological evaluation, preliminary stability studies of [^18F]12 and [^18F]13 were performed in human serum at 37 °C (Figure 3A,B). The stability studies were performed by taking an aliquot of the radiolabeled product solution and incubating the product mixture in the desired solvent or human serum at 37 °C for the given time points. In both cases, decomposition of [^18F]12 and [^18F]13 was evident from the first peak in the radioactive channel (tR: 0.6–1.0), most likely due to the release of [^18F]fluoride, which could be detected using UHPLC analysis from the first time point of 15 min and continued until 120 min. After 60 min, approximately 20% of [^18F]12 and 19% of [^18F]13 had been degraded; following a 120 min incubation, approximately 38% of both [^18F]12 and [^18F]13 had been degraded.

[8] = Liver cytosol assay (RLC); format: in vitro ADME, rat; conditions: for stability toward RLC: 2 mg/mL RLC, up to 60 min, 37 °C
Description: as §1, §2

[9] = Serum stability assay at 37 °C (radio-UHPLC); format: in vitro ADME, human; conditions: for stability in human serum: after only 15 min
Description: Either [^18F]12 or [^18F]13 (20–40 MBq) in 40 µL EtOH aliquots was incubated with 360 µL human serum (Sigma Aldrich, Darmstadt, Germany) at 37 °C. After specific time intervals (5–120 min), 40 µL samples were taken from the serum incubation mixture, added to 80 µL “Supersol” solubilizing agent (see Supplementary Materials Table S6) and cooled over ice for 2 min. Thereafter, the cooled mixture was centrifuged at 4 °C (15,000 rpm) for 3 min and 80 µL of the supernatant solution was monitored with radio-UHPLC. A gradient of 5% to 45% acetonitrile in 7.5 min was used for enhanced separation.
as §3

[10] = positive control, 40 µM, after 60 min

N#C[C@@H]1CC(F)(F)CN1C(=O)CNC(=O)c1ccnc2ccc(OCCCN3CCN(C(=O)CN4CCN(CC(=O)O)CCN(CC(=O)O)CCN(CC(=O)O)CC4)CC3)cc12 [FAPI-04, reference compound]
Hill Coefficient [1]: −1.51 (−2.51 to −0.95)

C[C@]12CC[C@H]3[C@@H](CCC4=CC(=O)CC[C@@]43C)[C@@H]1CC[C@@H]2O [Testosterone, reference compound]
time after which metabolization was completed ([2]; human): > 30 min

N#C[C@@H]1CC(F)(F)CN1C(=O)CNC(=O)c1ccnc2ccc(OCCCN3CCN(C(=O)c4ccc(OS(=O)(=O)[18F])cc4)CC3)cc12 [[^18F]12]
half-time toward HLM ([2]; 1 mg/mL HLM, 2 mM NADPH, 1.6 µM tracer, 37 °C, one-phase decay): 4.4 min
stability in presence of HLM without NADPH (control) ([2]; NADPH omitted, 60 min): apparently stable
stability toward HLC [3]: largely stable; also recorded: mostly stable
stability toward HLC ([3]; listed as [18F]12): No degradation
substrate of aldehyde oxidase (AO) ([3]; liver cytosols as source of AO): not to be a substrate of AO
stability in EtOH [4]: stable
logD [5]: 1.81
time of maximum activity concentration in kidney ([6]; i.v., after injection): 2 min
time of maximum activity concentration in liver ([6]; i.v., after injection): 2 min
activity concentration in bones ([6]; i.v., within 2 h): continuously increasing
fraction of initially delivered activity dose excreted via hepatobiliary pathway ([6]; retention in gall bladder and intestine, 2 h): 45%
fraction of initially delivered activity dose excreted via renal pathway ([6]; retention in urinary bladder, 2 h): 10%
stability in PBS [7]: stable
stability toward RLC [8]: largely stable; also recorded: mostly stable
stability toward RLC ([8]; listed as [18F]12): No degradation
fraction degraded in human serum ([9]; 120 min incubation): approximately 38%
fraction degraded in human serum ([9]; after 60 min): approximately 20%
stability in human serum [9]: clear signs of instability

N#C[C@@H]1CC(F)(F)CN1C(=O)CNC(=O)c1ccnc2ccc(OCCCN3CCN(C(=O)c4cccc(OS(=O)(=O)[18F])c4)CC3)cc12 [[^18F]13]
stability in EtOH [4]: stable
stability in PBS [7]: stable
fraction degraded in human serum ([9]; 120 min incubation): approximately 38%
fraction degraded in human serum ([9]; after 60 min): ~19%
stability in human serum [9]: clear signs of instability

N#C[C@@H]1CC(F)(F)CN1C(=O)CNC(=O)c1ccnc2ccc(OCCCN3CCN(C(=O)c4ccc(OS(=O)(=O)F)cc4)CC3)cc12 [compound 12]
pIC50 [1]: 8.02
Hill Coefficient [1]: −1.56 (−2.43 to −1.059)

N#C[C@@H]1CC(F)(F)CN1C(=O)CNC(=O)c1ccnc2ccc(OCCCN3CCN(C(=O)c4cccc(OS(=O)(=O)F)c4)CC3)cc12 [compound 13]
pIC50 [1]: 8.38
Hill Coefficient [1]: −1.27 (−1.98 to −0.91)

COc1cc(C=O)ccc1O [vanilin, Vanilin, reference compound]
fraction degraded in presence of HLC [3, 10]: More than 80%
fraction degraded with RLC [8, 10]: around 60%
